Activity calls are given as the source filed them. No cut-off for these calls is given here.
Tests used:
[1] = molecular target: Histone deacetylase 3 (Homo sapiens, UniProt O15379); assay: Inhibition of C-terminal FLAG-tagged human HDAC3 overexpressed in mammalian cells by plate reader method; assay type: cell-based
[2] = test system: HCT-116; assay: Antiproliferative activity against human HCT116 cells expressing HDAC after 72 hrs; assay type: functional, cell-based; details: HCT-116, 72 h
[3] = test system: HCT-116; assay: Antiproliferative activity against human HCT116 cells expressing HDAC after 96 hrs; assay type: functional, cell-based; details: for IC50: HCT-116, 96 h
[4] = molecular target: Histone deacetylase 1 (Homo sapiens, UniProt Q13547); assay: Inhibition of C-terminal FLAG-tagged human HDAC1 overexpressed in mammalian cells by plate reader method; assay type: cell-based
[5] = molecular target: T1, Voltage-gated inwardly rectifying potassium channel KCNH2 (Homo sapiens, UniProt Q12809)
[6] = Clearance in dog at 0.5 mg/kg, iv; assay type: ADME, organism-based, Canis lupus familiaris; design: dose 0.5 mg/kg, route intravenous; details: in vivo
[7] = Half life in rat at 2 mg/kg, iv; assay type: ADME, organism-based; design: dose 2 mg/kg, route intravenous; details: in vivo
[8] = Clearance in rat at 2 mg/kg, iv; assay type: ADME, organism-based; design: dose 2 mg/kg, route intravenous; details: in vivo
[9] = Oral bioavailability in dog at 1 mg/kg, po; assay type: ADME, organism-based, Canis lupus familiaris; details: in vivo
[10] = Half life in dog at 0.5 mg/kg, iv; assay type: ADME, organism-based, Canis lupus familiaris; design: dose 0.5 mg/kg, route intravenous; details: in vivo
[11] = Oral bioavailability in rat at 4 mg/kg; assay type: ADME, organism-based; details: in vivo
[12] = Volume of distribution at steady state in rat at 2 mg/kg, iv; assay type: ADME, organism-based; design: dose 2 mg/kg, route intravenous; details: in vivo, read-out: Vdss
[13] = Volume of distribution at steady state in dog at 0.5 mg/kg, iv; assay type: ADME, organism-based, Canis lupus familiaris; design: dose 0.5 mg/kg, route intravenous; details: in vivo, read-out: Vdss
[14] = Inhibition of calcium ion channel at < 10 uM
[15] = Increase in acetylated H2B/Total H2B ratio in acute in-vivo HCT116 xenograft model at 25 mg/kg, ip; assay type: functional; details: route intraperitoneal
[16] = molecular target: T1, Voltage-gated inwardly rectifying potassium channel KCNH2; assay: Inhibition of human ERG at < 10 uM
[17] = Bioavailability in rat plasma; assay type: ADME, organism-based
[18] = Half life in rat plasma; assay type: ADME, organism-based
[19] = Clearance in rat plasma; assay type: ADME, organism-based
[20] = Volume of distribution in rat plasma; assay type: ADME, organism-based
[21] = species: Homo sapiens; assay: Selectivity ratio of IC50 for C-terminal FLAG-tagged human HDAC3 to IC50 C-terminal FLAG-tagged human HDAC1

Sequence of Histone deacetylase 1 (Q13547 whole entry): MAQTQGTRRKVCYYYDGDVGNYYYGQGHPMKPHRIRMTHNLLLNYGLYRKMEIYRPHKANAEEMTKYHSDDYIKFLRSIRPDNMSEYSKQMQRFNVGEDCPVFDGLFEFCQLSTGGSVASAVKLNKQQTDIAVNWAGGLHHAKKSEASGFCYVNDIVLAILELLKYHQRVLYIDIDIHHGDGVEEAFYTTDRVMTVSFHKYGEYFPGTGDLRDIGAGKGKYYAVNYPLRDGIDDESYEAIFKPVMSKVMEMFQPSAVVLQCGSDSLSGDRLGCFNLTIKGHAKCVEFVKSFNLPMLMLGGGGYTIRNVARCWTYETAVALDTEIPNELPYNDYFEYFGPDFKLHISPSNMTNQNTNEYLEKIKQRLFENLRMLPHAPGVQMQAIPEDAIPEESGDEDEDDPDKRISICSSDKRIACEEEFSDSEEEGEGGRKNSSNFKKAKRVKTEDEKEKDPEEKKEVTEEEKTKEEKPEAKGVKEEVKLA
T1 sequence (Q12809 whole entry): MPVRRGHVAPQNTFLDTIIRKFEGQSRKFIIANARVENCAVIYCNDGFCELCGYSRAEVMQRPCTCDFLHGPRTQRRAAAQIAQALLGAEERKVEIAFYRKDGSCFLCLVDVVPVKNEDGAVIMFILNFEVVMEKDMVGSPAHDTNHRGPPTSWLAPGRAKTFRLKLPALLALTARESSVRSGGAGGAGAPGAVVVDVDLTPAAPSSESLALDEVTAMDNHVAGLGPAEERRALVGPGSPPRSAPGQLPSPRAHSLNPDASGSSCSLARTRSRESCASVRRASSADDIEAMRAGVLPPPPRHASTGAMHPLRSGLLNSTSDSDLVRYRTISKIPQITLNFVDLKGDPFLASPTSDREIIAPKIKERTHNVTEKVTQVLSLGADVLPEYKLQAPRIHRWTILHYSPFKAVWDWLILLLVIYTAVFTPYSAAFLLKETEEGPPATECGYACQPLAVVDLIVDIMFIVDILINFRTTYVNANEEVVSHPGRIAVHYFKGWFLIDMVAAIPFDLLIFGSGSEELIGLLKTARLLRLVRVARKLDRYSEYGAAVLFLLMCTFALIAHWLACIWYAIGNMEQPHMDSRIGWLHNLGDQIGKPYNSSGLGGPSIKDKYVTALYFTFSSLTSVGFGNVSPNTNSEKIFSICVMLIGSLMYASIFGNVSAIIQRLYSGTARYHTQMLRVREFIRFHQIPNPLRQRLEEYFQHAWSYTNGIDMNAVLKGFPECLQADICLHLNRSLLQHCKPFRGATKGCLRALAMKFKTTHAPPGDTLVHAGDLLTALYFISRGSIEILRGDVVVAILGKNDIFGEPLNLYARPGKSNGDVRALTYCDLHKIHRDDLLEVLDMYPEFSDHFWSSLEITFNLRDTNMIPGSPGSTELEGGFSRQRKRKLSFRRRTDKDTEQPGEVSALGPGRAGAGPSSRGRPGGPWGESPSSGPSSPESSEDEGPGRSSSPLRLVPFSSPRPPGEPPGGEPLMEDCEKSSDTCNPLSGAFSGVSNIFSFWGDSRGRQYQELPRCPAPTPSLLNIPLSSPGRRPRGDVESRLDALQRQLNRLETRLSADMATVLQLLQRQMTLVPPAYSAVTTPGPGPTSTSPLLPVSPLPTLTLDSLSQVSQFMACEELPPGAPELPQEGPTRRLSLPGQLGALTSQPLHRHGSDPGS
Sequence of Histone deacetylase 3 (O15379 whole entry): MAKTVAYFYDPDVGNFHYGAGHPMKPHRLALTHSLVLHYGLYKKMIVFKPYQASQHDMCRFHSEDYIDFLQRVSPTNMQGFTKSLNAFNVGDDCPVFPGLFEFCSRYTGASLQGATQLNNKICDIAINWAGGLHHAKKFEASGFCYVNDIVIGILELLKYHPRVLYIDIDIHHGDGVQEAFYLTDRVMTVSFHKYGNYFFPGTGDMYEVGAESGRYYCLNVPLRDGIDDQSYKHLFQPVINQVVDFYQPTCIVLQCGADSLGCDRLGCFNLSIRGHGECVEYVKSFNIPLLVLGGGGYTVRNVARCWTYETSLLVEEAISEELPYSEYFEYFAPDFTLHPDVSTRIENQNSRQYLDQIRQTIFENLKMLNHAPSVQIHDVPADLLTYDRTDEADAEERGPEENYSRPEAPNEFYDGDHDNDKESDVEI

Row | SMILES | IC50 [1] [µM] | IC50 [2] [µM] | IC50 [4] [µM] | also measured
1 | Nc1ccc(-c2ccccc2)cc1NC(=O)c1ccc(CNc2ccncc2)cc1 | 6.39 | 1.75 |  | 
2 | O=C(Nc1cc(-c2ccccc2)ccc1O)c1ccc(CNCCc2ccccc2)cc1 |  |  |  | Activity [3]: inactive
3 | Nc1ccc(-c2ccsc2)cc1NC(=O)c1ccc(CN2CCC3(CCCN3)CC2)cc1 | 8.71 | 0.073 | 0.008 | 
4 | O=C(Nc1cc(Br)ccc1O)c1ccc(CNc2ccncc2)cc1 |  |  | 5.22 | Activity [3]: inactive
5 | O=C(Nc1cc(-c2ccccc2)ccc1O)c1ccc(CNc2ccncc2)cc1 |  |  |  | IC50 [3]: 1.74 µM
6 | Nc1ccc(-c2ccccc2)cc1NC(=O)c1ccc(C(=O)N2CCC3(CCCN3)CC2)cc1 | 5.1 | 0.103 | 0.008 | clearance [6]: 8.2 mL/min/kg; half-life [7]: 7 h; clearance [8]: 26 mL/min/kg; bioavailability [9]: 4%; half-life [10]: 8.5 h; bioavailability [11]: 17%; Vd [12]: 14 L/kg; Vd [13]: 5.1 L/kg; Activity [14]: inactive; IC50 [5]: 12.4 µM; fold change (FC) [15]: 3; Activity [16]: Not Active
7 | O=C(Nc1ccccc1O)c1ccc(CNc2ccncc2)cc1 |  |  | 1.57 | Activity [3]: inactive
8 | O=C(NO)c1ccc(CNCc2cccc(Cl)c2)cc1 |  |  | 0.348 | 
9 | COc1ccc(O)c(NC(=O)c2ccc(CNc3ccncc3)cc2)c1 |  |  | 7.96 | Activity [3]: inactive
10 | Nc1ccc(-c2ccccc2F)cc1NC(=O)c1ccc(CN2CCC3(CCCN3)CC2)cc1 | 17.4 | 0.47 | 0.016 | IC50 [5]: 0.183 µM
11 | O=C(NO)c1ccc(CNCCc2cccc(Cl)c2)cc1 |  |  | 1.01 | 
12 | CC(NCc1ccc(C(=O)Nc2cc(-c3ccccc3)ccc2O)cc1)c1ccncc1 (stereo unspecified) |  |  | 0.013 | IC50 [3]: 1.82 µM
13 | O=C(Nc1cc(Cl)ccc1O)c1ccc(CNc2ccncc2)cc1 |  |  | 5.03 | Activity [3]: inactive
14 | Nc1ccc(-c2ccccc2)cc1NC(=O)c1ccc(CN2CCC3(CCNC3)CC2)cc1 | 6.93 | 0.309 | 0.033 | 
15 | Nc1ccc(-c2ccc(F)cc2)cc1NC(=O)c1ccc(CN2CCC3(CCNC3)CC2)cc1 | 4.8 | 0.276 | 0.013 | IC50 [5]: 0.237 µM
16 | CN(Cc1ccc(C(=O)Nc2cc(-c3ccccc3)ccc2N)cc1)c1ccncc1 | 5.38 | 3.61 |  | 
17 | CC(C)CNCc1ccc(C(=O)Nc2cc(-c3ccccc3)ccc2O)cc1 |  |  |  | Activity [3]: inactive
18 | O=C(NO)c1ccc(CNC2CCCCC2)cc1 |  |  | 24.1 | 
19 | O=C(Nc1cc(-c2ccccc2)ccc1O)c1ccc(CNCc2cccnc2)cc1 |  |  |  | IC50 [3]: 1.36 µM
20 | Nc1ccc(-c2cccc(F)c2)cc1NC(=O)c1ccc(CN2CCC3(CCCN3)CC2)cc1 | 5.73 | 1.07 | 0.047 | 

Second part, led by results:

Row | IC50 [1] [µM] | IC50 [2] [µM] | IC50 [4] [µM] | SMILES | also measured
21 |  |  | 1.62 | O=C(NO)c1ccc(CNc2ccc(Cl)cc2)cc1 | 
22 | 9.62 | 0.082 | 0.004 | Nc1ccc(-c2cccs2)cc1NC(=O)c1ccc(CN2CCC3(CCCN3)CC2)cc1 | IC50 [5]: 1.6 µM
23 | 3.2 | 0.138 | 0.012 | Nc1ccc(-c2ccc(F)cc2)cc1NC(=O)c1ccc(C(=O)N2CCC3(CCCN3)CC2)cc1 | 
24 | 4.33 | 0.07 | 0.011 | Nc1ccc(-c2cccs2)cc1NC(=O)c1ccc(C(=O)N2CCC3(CCCN3)CC2)cc1 | IC50 [5]: 25.1 µM
25 | 16.5 | 0.118 | 0.008 | Nc1ccc(-c2ccccc2)cc1NC(=O)c1ccc(CN2CCC3(CCCN3)CC2)cc1 | bioavailability [17]: 70%; half-life [18]: 8 h; clearance [19]: 45 mL/min/kg; Vd [20]: 22 L/kg; Ratio IC50 [21]: 2000
26 |  |  | 0.477 | COc1cccc(CNCc2ccc(C(=O)NO)cc2)c1 | 
27 | > 50 | 0.29 | 0.011 | Nc1ccc(-c2ccccc2F)cc1NC(=O)c1ccc(C(=O)N2CCC3(CCCN3)CC2)cc1 | 
28 |  |  | 20.6 | Cc1ccc(O)c(NC(=O)c2ccc(CNc3ccncc3)cc2)c1 | Activity [3]: inactive
29 |  |  | 2.01 | O=C(Nc1cc(F)ccc1O)c1ccc(CNc2ccncc2)cc1 | Activity [3]: inactive
